The source made the active and inactive calls. The calls are words filed in the database; no cut-off is given here. Where a SMILES comes first, the peptide text is derived from it. [ ]: non-standard residue; d: D form. Trp(6-Cl) = N[C@@H](Cc1c[nH]c2cc(Cl)ccc12)C(=O)O; Phe(3-F) = N[C@@H](Cc1cccc(F)c1)C(=O)O; 1Nal = N[C@@H](Cc1cccc2ccccc12)C(=O)O; Hyp = O=C(O)[C@@H]1C[C@@H](O)CN1; Cba = N[C@@H](CC1CCC1)C(=O)O; Nle = CCCC[C@H](N)C(=O)O; Ac3c = NC1(C(=O)O)CC1
target: T1, Transcriptional enhancer factor TEF-3 (Homo sapiens, UniProt Q15561); assay: Inhibition of human TEAD4 (217 to 434 residues) expressed in Escherichia coli BL21 (DE3) interaction with N-biotinylated YAP (60 to 100 residues) incubated for 2 hrs by TR-FRET assay
T1 sequence (Q15561 whole entry, the tested form may be a part): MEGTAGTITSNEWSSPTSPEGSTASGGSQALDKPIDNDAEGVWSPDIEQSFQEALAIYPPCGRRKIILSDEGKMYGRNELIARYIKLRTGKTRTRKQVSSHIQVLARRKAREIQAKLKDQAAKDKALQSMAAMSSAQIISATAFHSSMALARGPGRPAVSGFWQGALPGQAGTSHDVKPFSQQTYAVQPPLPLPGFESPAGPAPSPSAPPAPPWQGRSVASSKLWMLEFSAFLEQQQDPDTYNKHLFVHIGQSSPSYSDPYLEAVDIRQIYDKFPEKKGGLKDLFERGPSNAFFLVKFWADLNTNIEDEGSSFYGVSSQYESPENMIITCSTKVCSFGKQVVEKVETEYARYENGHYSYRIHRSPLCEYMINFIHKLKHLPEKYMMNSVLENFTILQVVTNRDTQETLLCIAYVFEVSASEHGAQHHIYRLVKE

Compound | IC50
CC(C)C[C@H](NC(=O)[C@H](CCCNC(=N)N)NC(=O)[C@H](Cc1c[nH]c2cc(Cl)ccc12)NC(=O)[C@@H]1CCCN1)C(=O)N[C@@H](CCCNC(=N)N)C(=O)N[C@@H](CCCCN)C(=O)N[C@@H](CC1CCC1)C(=O)N1CCC[C@H]1C(=O)N[C@@H](CC(=O)O)C(=O)N[C@@H](CO)C(=O)N[C@@H](Cc1ccccc1)C(=O)N[C@@H](Cc1cccc2ccccc12)C(=O)N[C@@H](CCCCN)C(=O)N[C@@H](CCC(=O)O)C(=O)N1CCC[C@H]1C(=O)O (H-P[Trp(6-Cl)]RLRK[Cba]PDSF[1Nal]KEP-OH) | 0.045 µM
CC(C)C[C@H](NC(=O)[C@H](CCCNC(=N)N)NC(=O)[C@H](Cc1c[nH]c2cc(Cl)ccc12)NC(=O)[C@@H]1CCCN1)C(=O)N[C@@H](CCCNC(=N)N)C(=O)N[C@@H](CCCCN)C(=O)N[C@@H](CC1CCC1)C(=O)N1C[C@H](O)C[C@H]1C(=O)N[C@@H](CC(=O)O)C(=O)N[C@@H](CO)C(=O)N[C@@H](Cc1ccccc1)C(=O)N[C@@H](Cc1cccc2ccccc12)C(=O)N[C@@H](CCCCN)C(=O)N[C@@H](CCC(=O)O)C(=O)N1CCC[C@H]1C(=O)O (H-P[Trp(6-Cl)]RLRK[Cba][Hyp]DSF[1Nal]KEP-OH) | 0.016 µM
CCCC[C@H](NC(=O)[C@H](CCCCN)NC(=O)[C@H](CCCNC(=N)N)NC(=O)[C@H](CC(C)C)NC(=O)[C@H](CCCNC(=N)N)NC(=O)[C@H](Cc1c[nH]c2cc(Cl)ccc12)NC(=O)[C@@H]1CCCN1)C(=O)N1CCC[C@H]1C(=O)N[C@@H](CC(=O)O)C(=O)N[C@@H](CO)C(=O)N[C@@H](Cc1ccccc1)C(=O)N[C@@H](Cc1ccccc1)C(=O)N[C@@H](CCCCN)C(=O)N1CCC[C@H]1C(=O)N1CCC[C@H]1C(=O)O (H-P[Trp(6-Cl)]RLRK[Nle]PDSFFKPP-OH) | 1.56 µM
CCCC[C@H](NC(=O)[C@H](CCCCN)NC(=O)[C@H](CCCNC(=N)N)NC(=O)[C@H](CC(C)C)NC(=O)[C@H](CCCNC(=N)N)NC(=O)[C@H](Cc1c[nH]c2cc(Cl)ccc12)NC(=O)[C@@H]1CCCN1)C(=O)N1CCC[C@H]1C(=O)N[C@@H](CC(=O)O)C(=O)N[C@@H](CO)C(=O)N[C@@H](Cc1ccccc1)C(=O)N[C@@H](Cc1cccc2ccccc12)C(=O)N[C@@H](CCCCN)C(=O)N1CCC[C@H]1C(=O)N1CCC[C@H]1C(=O)O (H-P[Trp(6-Cl)]RLRK[Nle]PDSF[1Nal]KPP-OH) | 0.409 µM
H-PWRLRKLPDSFFKPP-OH | 24.2 µM

Next, values leading:

IC50 | Compound
67.7 µM | CCCC[C@H](NC(=O)[C@@H]1CCCN1)C(=O)N[C@@H](CCCNC(=N)N)C(=O)N[C@@H](CC(C)C)C(=O)N[C@@H](CCCNC(=N)N)C(=O)N[C@@H](CCCCN)C(=O)N[C@@H](CC(C)C)C(=O)N1CCC[C@H]1C(=O)N[C@@H](CC(=O)O)C(=O)N[C@@H](CO)C(=O)N[C@@H](Cc1ccccc1)C(=O)N[C@@H](Cc1ccccc1)C(=O)N[C@@H](CCCCN)C(=O)N1CCC[C@H]1C(=O)N1CCC[C@H]1C(=O)O (H-P[Nle]RLRKLPDSFFKPP-OH)
5.83 µM | CC(C)C[C@H](NC(=O)[C@H](CCCNC(=N)N)NC(=O)[C@H](Cc1c[nH]c2cc(Cl)ccc12)NC(=O)[C@@H]1CCCN1)C(=O)N[C@@H](CCCNC(=N)N)C(=O)N[C@@H](CCCCN)C(=O)N[C@@H](CC(C)C)C(=O)N1CCC[C@H]1C(=O)N[C@@H](CC(=O)O)C(=O)N[C@@H](CO)C(=O)N[C@@H](Cc1ccccc1)C(=O)N[C@@H](Cc1ccccc1)C(=O)N[C@@H](CCCCN)C(=O)N1CCC[C@H]1C(=O)N1CCC[C@H]1C(=O)O (H-P[Trp(6-Cl)]RLRKLPDSFFKPP-OH)
0.216 µM | CC(C)C[C@H](NC(=O)[C@H](CCCNC(=N)N)NC(=O)[C@H](Cc1c[nH]c2cc(Cl)ccc12)NC(=O)[C@@H]1CCCN1)C(=O)N[C@@H](CCCNC(=N)N)C(=O)N[C@@H](CCCCN)C(=O)N[C@@H](CC1CCC1)C(=O)N1CCC[C@H]1C(=O)N[C@@H](CC(=O)O)C(=O)N[C@@H](CO)C(=O)N[C@@H](Cc1ccccc1)C(=O)N[C@@H](Cc1cccc2ccccc12)C(=O)N[C@@H](CCCCN)C(=O)N1CCC[C@H]1C(=O)N1CCC[C@H]1C(=O)O (H-P[Trp(6-Cl)]RLRK[Cba]PDSF[1Nal]KPP-OH)
2.4 µM | CCCC[C@H](NC(=O)[C@H](CCCCN)NC(=O)[C@H](CCCNC(=N)N)NC(=O)[C@H](CC(C)C)NC(=O)[C@H](CCCNC(=N)N)NC(=O)[C@H](Cc1c[nH]c2cc(Cl)ccc12)NC(=O)[C@@H]1CCCN1)C(=O)N1CCC[C@H]1C(=O)N[C@@H](CC(=O)O)C(=O)N[C@@H](CO)C(=O)N[C@@H](Cc1cccc(F)c1)C(=O)N[C@@H](Cc1ccccc1)C(=O)N[C@@H](CCCCN)C(=O)N1CCC[C@H]1C(=O)N1CCC[C@H]1C(=O)O (H-P[Trp(6-Cl)]RLRK[Nle]PDS[Phe(3-F)]FKPP-OH)
0.009 µM | N=C(N)NCCC[C@H](NC(=O)[C@H](Cc1c[nH]c2cc(Cl)ccc12)NC(=O)[C@@H]1CCCN1)C(=O)NC1(C(=O)N[C@@H](CCCNC(=N)N)C(=O)N[C@@H](CCCCN)C(=O)N[C@@H](CC2CCC2)C(=O)N2C[C@H](O)C[C@H]2C(=O)N[C@@H](CC(=O)O)C(=O)N[C@@H](CO)C(=O)N[C@@H](Cc2ccccc2)C(=O)N[C@@H](Cc2cccc3ccccc23)C(=O)N[C@@H](CCCCN)C(=O)N[C@@H](CCC(=O)O)C(=O)N2CCC[C@H]2C(=O)O)CC1 (H-P[Trp(6-Cl)]R[Ac3c]RK[Cba][Hyp]DSF[1Nal]KEP-OH)
70 µM | H-PMRLRKLPDSFFKPP-OH

target: T1, Transcriptional enhancer factor TEF-3; assay: Inhibition of TEAD4 in human SF268 ::MCAT-Luc RGA model cells up to 20 uM by YAP/TEAD-dependent luciferase reporter gene assay

inhibition | Compound
inactive | CC(C)C[C@H](NC(=O)[C@H](CCCNC(=N)N)NC(=O)[C@H](Cc1c[nH]c2cc(Cl)ccc12)NC(=O)[C@@H]1CCCN1)C(=O)N[C@@H](CCCNC(=N)N)C(=O)N[C@@H](CCCCN)C(=O)N[C@@H](CC1CCC1)C(=O)N1C[C@H](O)C[C@H]1C(=O)N[C@@H](CC(=O)O)C(=O)N[C@@H](CO)C(=O)N[C@@H](Cc1ccccc1)C(=O)N[C@@H](Cc1cccc2ccccc12)C(=O)N[C@@H](CCCCN)C(=O)N[C@@H](CCC(=O)O)C(=O)N1CCC[C@H]1C(=O)O (H-P[Trp(6-Cl)]RLRK[Cba][Hyp]DSF[1Nal]KEP-OH)

target: T1, Transcriptional enhancer factor TEF-3; assay: Binding affinity to Avi-tagged human TEAD4 (217 to 434 residues) expressed in Escherichia coli BL21 (DE3) by SPR assay

Kd | Compound
0.025 µM | CC(C)C[C@H](NC(=O)[C@H](CCCNC(=N)N)NC(=O)[C@H](Cc1c[nH]c2cc(Cl)ccc12)NC(=O)[C@@H]1CCCN1)C(=O)N[C@@H](CCCNC(=N)N)C(=O)N[C@@H](CCCCN)C(=O)N[C@@H](CC1CCC1)C(=O)N1C[C@H](O)C[C@H]1C(=O)N[C@@H](CC(=O)O)C(=O)N[C@@H](CO)C(=O)N[C@@H](Cc1ccccc1)C(=O)N[C@@H](Cc1cccc2ccccc12)C(=O)N[C@@H](CCCCN)C(=O)N[C@@H](CCC(=O)O)C(=O)N1CCC[C@H]1C(=O)O (H-P[Trp(6-Cl)]RLRK[Cba][Hyp]DSF[1Nal]KEP-OH)

Source: ChEMBL document CHEMBL4433250, “Structure-based design of potent linear peptide inhibitors of the YAP-TEAD protein-protein interaction derived from the YAP omega-loop sequence” (Bioorg Med Chem Lett, 2019)
